Tested on: compound 48/80-induced lethality
Assay: Protection of rats from compound 48/80-induced lethality
Assay type: in vivo, rat (male, inbred Wistar strain)
Details: Rattus norvegicus; test compound subcutaneously or orally (route not specified per compound); compound 48/80 0.5 mg/kg i.v. one hour after treatment; survival after 4 hours; protection of 50% of animals; read-out: compound 48/80 lethality test in rate-ED50
Experimental: Protection of rats from compound 48/80-induced lethality
The protection from compound 48/80-induced lethal circulatory collapse appears to be a simple way of evaluating quantitatively the antihistaminic activity of test compounds. Male rats of an inbred Wistar strain, weighting 240-260 g were used in the experiment. After overnight starvation the rats were transferred to conditioned laboratories (temp. =21±1° C., relative humidity =65±5%).
The rats were treated subcutaneously or orally with a test compound or with the solvent (NaCl solution, 0.9%). One hour after treatment there was injected intravenously compound 48/80, freshly dissolved in water, at a dose of 0.5 mg/kg (0.2 ml/100 g of body weight). In control experiments, wherein 250 solvent-treated animals were injected with the standard dose of compound 48/80, not more than 2.8% of the animals survived after 4 hours. Survival after 4 hours is therefore considered to be a safe criterion of a protective effect of drug administration. Said ED50 -values are the values in mg/kg body weight at which the tested compounds protect 50% of the tested animals against compound 48/80-inducedlethality.

Q: How did the ED50 turn out when `Cc1ccc(Cn2c(NC3CCN(C)CC3)nc3cccnc32)o1` [Compound 1] was run?
A: The ED50 was 0.005 mg/kg.

Q: How did the ED50 turn out when `CCN1CCC(Nc2nc3cccnc3n2Cc2ccc(C)o2)CC1.O=C(O)/C=C/C(=O)O.O=C(O)/C=C/C(=O)O` [Compound 4, N-(1-ethyl-4-piperidinyl)-3-[(5-methyl-2-furanyl)methyl]-3H-imidazo[4,5-b]-pyridin-2-amine (E)-2-butenedioate(1:2)] was run?
A: The ED50 was 0.0025 mg/kg.

Q: With `C=CCN1CCC(Nc2nc3cccnc3n2Cc2ccc(C)o2)CC1.O=C(O)/C=C/C(=O)O.O=C(O)/C=C/C(=O)O` [Compound 5, 3-[(5-methyl-2-furanyl)methyl]-N-[1-(2-propenyl)-4-piperidinyl]-3H-imidazo-[4,5-b]pyridin-2-amine (E)-2-butenedioate(1:2)] as the compound, how does the ED50 read?
A: Its ED50 is 0.005 mg/kg.

Q: With `Cc1ccc(Cn2c(NC3CCN(C/C=C/c4ccccc4)CC3)nc3cccnc32)o1` [Compound 6] as the compound, how does the ED50 read?
A: Its ED50 is 0.04 mg/kg.

Q: For `CCOCCN1CCC(Nc2nc3cccnc3n2Cc2ccc(C)o2)CC1` [Compound 7], which ED50 is on record?
A: Its ED50 is 0.02 mg/kg.

Q: For `Cc1ccc(Cn2c(NC3CCN(CCCOc4ccccc4)CC3)nc3cccnc32)o1` [Compound 8], which ED50 is on record?
A: The ED50 was 0.04 mg/kg.

Q: Which ED50 does the source give for `Cc1ccc(Cn2c(NC3CCN(CCn4c(=O)[nH]c5ccccc54)CC3)nc3cccnc32)o1` [Compound 9] here?
A: Its ED50 is 0.02 mg/kg.

Q: Which ED50 does the source give for `CCn1nnn(CCN2CCC(Nc3nc4cccnc4n3Cc3ccc(C)o3)CC2)c1=O` [Compound 10] here?
A: Its ED50 is 0.04 mg/kg.

Q: For `CCN1CCC(Nc2nc3ccccc3n2Cc2ccc(C)o2)CC1` [Compound 11], which ED50 is on record?
A: Its ED50 is 0.01 mg/kg.

Q: For `COc1ccc(CCN2CCC(Nc3nc4ccccc4n3Cc3ccc(C)o3)CC2)cc1` [Compound 13], which ED50 is on record?
A: The ED50 was 0.04 mg/kg.

Q: For `Cc1ccc(Cn2c(NC3CCN(CCc4cccs4)CC3)nc3cccnc32)o1` [Compound 15], which ED50 is on record?
A: Its ED50 is 0.04 mg/kg.

Q: For `CC(=O)CCCN1CCC(Nc2nc3cccnc3n2Cc2ccc(C)o2)CC1` [Compound 18], which ED50 is on record?
A: The ED50 was 0.01 mg/kg.

Q: `CCn1nnn(CCN2CCC(Nc3nc4ccccc4n3Cc3ccc(C)o3)CC2)c1=O.O=C(O)C(=O)O.O=C(O)C(=O)O` [Compound 22, 1-ethyl-1,4-dihydro-4-[2-[4-[[1-[(5-methyl-2-furanyl)methyl]-1H-benzimidazol-2-yl]-amino]-1-piperidinyl]ethyl]-5H-tetrazol-5-one ethanedioate(1:2)] was tested. Which ED50 did it give?
A: Its ED50 is 0.04 mg/kg.

Q: How did the ED50 turn out when `Cc1ccc(Cn2c(NC3CCN(CC(O)COc4ccccc4)CC3)nc3cccnc32)o1` (stereo not shown) [Compound 26] was run?
A: Its ED50 is 0.04 mg/kg.

Q: `CCc1ccc(Cn2c(NC3CCN(C)CC3)nc3cccnc32)o1` [Compound 29] was tested. Which ED50 did it give?
A: The ED50 was 0.04 mg/kg.

Q: `Cc1occc1Cn1c(NC2CCN(C)CC2)nc2cccnc21` [Compound 36] was tested. Which ED50 did it give?
A: The ED50 was 0.04 mg/kg.

Q: With `CCCCN1CCC(Nc2nc3cccnc3n2Cc2ccc(C)o2)CC1` [Compound 37] as the compound, how does the ED50 read?
A: The ED50 was 0.02 mg/kg.

Q: `Cc1ccc(Cn2c(NC3CCN(CCCn4c(=O)[nH]c5ccccc54)CC3)nc3cccnc32)o1` [Compound 38] was tested. Which ED50 did it give?
A: The ED50 was 0.02 mg/kg.

Q: How did the ED50 turn out when `CCCCCCN1CCC(Nc2nc3cccnc3n2Cc2ccc(C)o2)CC1` [Compound 39] was run?
A: The ED50 was 0.04 mg/kg.

Q: For `CNC(=O)NCCN1CCC(Nc2nc3ccccc3n2Cc2ccc(C)o2)CC1` [Compound 40, N-methyl-N'-[2-[4-[[1-[(5-methyl-2-furanyl)methyl]-1H-benzimidazol-2-yl]amino]-1-piperidinyl]ethyl]urea], which ED50 is on record?
A: The ED50 was 0.02 mg/kg.

Q: With `CC(=O)CCN1CCC(Nc2nc3cccnc3n2Cc2ccc(C)o2)CC1` [Compound 41] as the compound, how does the ED50 read?
A: The ED50 was 0.01 mg/kg.

Q: With `CCCCCN1CCC(Nc2nc3cccnc3n2Cc2ccc(C)o2)CC1` [Compound 42] as the compound, how does the ED50 read?
A: The ED50 was 0.04 mg/kg.

Q: With `Cc1ccc(Cn2c(NC3CCN(CCCC(=O)c4ccc(F)cc4)CC3)nc3cccnc32)o1` [Compound 46] as the compound, how does the ED50 read?
A: The ED50 was 0.04 mg/kg.

Q: For `Cc1occc1Cn1c(NC2CCN(CCn3c(=O)[nH]c4ccccc43)CC2)nc2cccnc21` [Compound 53], which ED50 is on record?
A: The ED50 was 0.04 mg/kg.

Q: For `Cc1ccoc1Cn1c(NC2CCN(C)CC2)nc2cccnc21` [Compound 56], which ED50 is on record?
A: Its ED50 is 0.04 mg/kg.

Q: Which ED50 does the source give for `Cc1coc(Cn2c(NC3CCN(C)CC3)nc3cccnc32)c1` [Compound 62] here?
A: Its ED50 is 0.005 mg/kg.

Q: Which ED50 does the source give for `Cc1coc(Cn2c(NC3CCN(CCn4c(=O)[nH]c5ccccc54)CC3)nc3cccnc32)c1` [Compound 63] here?
A: The ED50 was 0.04 mg/kg.

Q: How did the ED50 turn out when `COc1ccc(CCN2CCC(Nc3nc4cccnc4n3Cc3cc(C)co3)CC2)cc1` [Compound 64] was run?
A: The ED50 was 0.04 mg/kg.
